Results reported in US12404241B2 (Celgene Corporation, priority 2018, dated 2025).
Structures can show the parent of a compound that is named as a salt. Where two headings read alike, the source gives them in different places.

Biological target: T1, AR (Homo sapiens, UniProt P10275)
T1 construct: endogenous in cells; host or cells: VCaP cells
T1 sequence (P10275 1-920): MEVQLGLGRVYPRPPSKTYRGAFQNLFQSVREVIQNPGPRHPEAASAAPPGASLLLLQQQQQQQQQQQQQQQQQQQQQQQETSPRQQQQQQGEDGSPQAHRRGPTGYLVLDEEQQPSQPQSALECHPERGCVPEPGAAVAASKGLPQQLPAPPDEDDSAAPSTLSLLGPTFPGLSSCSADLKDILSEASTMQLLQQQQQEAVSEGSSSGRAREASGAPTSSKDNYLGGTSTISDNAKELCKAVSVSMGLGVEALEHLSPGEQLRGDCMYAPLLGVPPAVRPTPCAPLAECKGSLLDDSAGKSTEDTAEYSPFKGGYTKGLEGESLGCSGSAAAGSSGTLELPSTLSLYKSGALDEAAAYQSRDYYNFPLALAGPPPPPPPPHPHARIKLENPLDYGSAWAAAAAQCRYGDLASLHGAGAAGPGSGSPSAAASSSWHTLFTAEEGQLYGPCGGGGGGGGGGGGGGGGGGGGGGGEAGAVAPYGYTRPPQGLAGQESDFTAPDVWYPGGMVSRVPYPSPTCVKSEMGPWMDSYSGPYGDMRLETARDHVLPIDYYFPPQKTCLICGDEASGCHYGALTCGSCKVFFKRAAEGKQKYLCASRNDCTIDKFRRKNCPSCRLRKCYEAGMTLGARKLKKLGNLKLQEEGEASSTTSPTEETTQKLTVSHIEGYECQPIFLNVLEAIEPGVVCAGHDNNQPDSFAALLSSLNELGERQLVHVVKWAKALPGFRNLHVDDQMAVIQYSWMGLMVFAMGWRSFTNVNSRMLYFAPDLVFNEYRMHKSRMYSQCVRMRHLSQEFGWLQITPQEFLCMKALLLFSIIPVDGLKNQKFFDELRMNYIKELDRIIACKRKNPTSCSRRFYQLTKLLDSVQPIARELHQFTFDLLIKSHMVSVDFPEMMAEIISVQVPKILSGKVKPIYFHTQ
Assay: VCAP AR Degradation Assay
Type: cell-based
Conditions: for Y (AR degradation efficiency, % of DMSO control): class symbols *; for DC50: class symbols A-C
How it was run: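 VCaP cells treated 24 h at 37 °C with a 10-point 1:3 series (top 5 μM final; 0.1% DMSO control). Lysate AR measured by sandwich ELISA, normalized to DMSO as percent of control; DC50, EC50 and lowest AR level (Y) from four-parameter logistic fit.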

Compound | Y (AR degradation efficiency, % of DMSO control) | DC50 (read-out: DC50) | DC50
CCc1cc(N2C(=S)N(c3cnc(C#N)c(C(F)(F)F)c3)C(=O)C2(C)C)ccc1OCCN1C[C@H]2C[C@@H]1CN2CC(=O)Nc1cc(Cl)cc(NC2CCC(=O)NC2=O)c1 (stereo partly drawn) [Example 120, N-(3-chloro-5-(2,6-dioxopiperidin-3-ylamino)phenyl)-2-((1R,4R)-5-(2-(4-(3-(6-cyano-5-(trifluoromethyl)pyridin-3-yl)-5,5-dimethyl-4-oxo-2-thioxoimidazolidin-1-yl)-2-ethylphenoxy)ethyl)-2,5-diazabicyclo[2.2.1]heptan-2-yl)acetamide] | ** (25%<Y<=35%) | 100 to 500 nM | –
CCc1cc(N2C(=S)N(c3ccc(C#N)c(C(F)(F)F)c3)C(=O)C2(C)C)ccc1OCCN1CCN(CC(=O)Nc2cc(F)cc(NC3CCC(=O)NC3=O)c2)C(C)(C)C1 (stereo not drawn) [Example 73, 2-(4-(2-(4-(3-(4-cyano-3-(trifluoromethyl)phenyl)-5,5-dimethyl-4-oxo-2-thioxoimidazolidin-1-yl)-2-ethylphenoxy)ethyl)-2,2-dimethylpiperazin-1-yl)-N-(3-(2,6-dioxopiperidin-3-ylamino)-5-fluorophenyl)acetamide] | * (0<Y<=25%) | < 100 nM | –
C[C@@H]1CN(CCOc2ccc(N3C(=S)N(c4cnc(C#N)c(C(F)(F)F)c4)C(=O)C34CCC4)cc2CCF)CCN1CC(=O)Nc1cc(Cl)cc(NC2CCC(=O)NC2=O)c1 (stereo partly drawn) [Example 142, N-(3-chloro-5-(2,6-dioxopiperidin-3-ylamino)phenyl)-2-((R)-4-(2-(4-(7-(6-cyano-5-(trifluoromethyl)pyridin-3-yl)-8-oxo-6-thioxo-5,7-diazaspiro[3.4]octan-5-yl)-2-(2-fluoroethyl)phenoxy)ethyl)-2-methylpiperazin-1-yl)acetamide] | * (0<Y<=25%) | < 100 nM | –
CCc1cc(N2C(=S)N(c3ccc(C#N)c(C(F)(F)F)c3)C(=O)C2(C)C)cc(F)c1OCCN1C[C@@H](C)N(CC(=O)Nc2cccc(NC3CCC(=O)NC3=O)c2)[C@@H](C)C1 (stereo partly drawn) [Example 248, 2-((2S,6R)-4-(2-(4-(3-(4-cyano-3-(trifluoromethyl)phenyl)-5,5-dimethyl-4-oxo-2-thioxoimidazolidin-1-yl)-2-ethyl-6-fluorophenoxy)ethyl)-2,6-dimethylpiperazin-1-yl)-N-(3-(2,6-dioxopiperidin-3-ylamino)phenyl)acetamide] | * (0<Y<=25%) | < 100 nM | –
CCc1cc(N2C(=S)N(c3ccc(C#N)c(C(F)(F)F)c3)C(=O)C2(C)C)ccc1OCCN1C[C@H](C)N(CC(=O)Nc2cccc(NC3CCC(=O)NC3=O)c2)C[C@H]1C (stereo partly drawn) [Example 122, 2-((2S,5R)-4-(2-(4-(3-(4-cyano-3-(trifluoromethyl)phenyl)-5,5-dimethyl-4-oxo-2-thioxoimidazolidin-1-yl)-2-ethylphenoxy)ethyl)-2,5-dimethylpiperazin-1-yl)-N-(3-(2,6-dioxopiperidin-3-ylamino)phenyl)acetamide] | ** (25%<Y<=35%) | 100 to 500 nM | –
C[C@@H]1CN(CCOc2ccc(N3C(=S)N(c4cnc(C#N)c(C(F)(F)F)c4)C(=O)C34CCC4)cc2C2CC2)C[C@H](C)N1CC(=O)Nc1cc(C#N)cc(NC2CCC(=O)NC2=O)c1 (stereo partly drawn) [Example 212, N-(3-cyano-5-(2,6-dioxopiperidin-3-ylamino)phenyl)-2-((2S,6R)-4-(2-(4-(7-(6-cyano-5-(trifluoromethyl)pyridin-3-yl)-8-oxo-6-thioxo-5,7-diazaspiro[3.4]octan-5-yl)-2-cyclopropylphenoxy)ethyl)-2,6-dimethylpiperazin-1-yl)acetamide] | * (0<Y<=25%) | < 100 nM | –
CCc1cc(N2C(=S)N(c3ccc(C#N)c(C(F)(F)F)c3)C(=O)C2(C)C)ccc1OCCN1CCN([C@@H](C)C(=O)Nc2cccc(NC3CCC(=O)NC3=O)c2)[C@@H](C)C1 (stereo partly drawn) [Example 275, (2S)-2-((S)-4-(2-(4-(3-(4-cyano-3-(trifluoromethyl)phenyl)-5,5-dimethyl-4-oxo-2-thioxoimidazolidin-1-yl)-2-ethylphenoxy)ethyl)-2-methylpiperazin-1-yl)-N-(3-(2,6-dioxopiperidin-3-ylamino)phenyl)propanamide] | * (0<Y<=25%) | < 100 nM | –
CCc1cc(N2C(=S)N(c3cnc(C#N)c(C(F)(F)F)c3)C(=O)C2(C)C)ccc1OCCN1CC2CCC(C1)N2CC(=O)Nc1cc(Cl)cc(NC2CCC(=O)NC2=O)c1 (stereo not drawn) [Example 173, N-(3-chloro-5-(2,6-dioxopiperidin-3-ylamino)phenyl)-2-(3-(2-(4-(3-(6-cyano-5-(trifluoromethyl)pyridin-3-yl)-5,5-dimethyl-4-oxo-2-thioxoimidazolidin-1-yl)-2-ethylphenoxy)ethyl)-3,8-diazabicyclo[3.2.1]octan-8-yl)acetamide] | * (0<Y<=25%) | – | < 100 nM
CC1(C)C(=O)N(c2ccc(C#N)c(C(F)(F)F)c2)C(=S)N1c1ccc(OCCN2CCN(CC(=O)Nc3cccc(NC4CCC(=O)NC4=O)c3)CC2)c(C2CCC2)c1 (stereo not drawn) [Example 31, trifluoroacetate] | * (0<Y<=25%) | < 100 nM | –
CCc1cc(N2C(=S)N(c3cnc(C#N)c(C(F)(F)F)c3)C(=O)C2(C)C)ccc1OCCN1CC2CCC(C1)N2CC(=O)Nc1cccc(NC2CCC(=O)NC2=O)c1 (stereo not drawn) [Example 178, 2-(3-(2-(4-(3-(6-cyano-5-(trifluoromethyl)pyridin-3-yl)-5,5-dimethyl-4-oxo-2-thioxoimidazolidin-1-yl)-2-ethylphenoxy)ethyl)-3,8-diazabicyclo[3.2.1]octan-8-yl)-N-(3-(2,6-dioxopiperidin-3-ylamino)phenyl)acetamide] | ** (25%<Y<=35%) | – | < 100 nM
CC(C)c1cc(N2C(=S)N(c3cnc(C#N)c(C(F)(F)F)c3)C(=O)C2(C)C)ccc1OCCN1CCN(CC(=O)Nc2cccc(NC3CCC(=O)NC3=O)c2)[C@H](C(F)(F)F)C1 (stereo partly drawn) [Example 256, 2-((S)-4-(2-(4-(3-(6-cyano-5-(trifluoromethyl)pyridin-3-yl)-5,5-dimethyl-4-oxo-2-thioxoimidazolidin-1-yl)-2-isopropylphenoxy)ethyl)-2-(trifluoromethyl)piperazin-1-yl)-N-(3-(2,6-dioxopiperidin-3-ylamino)phenyl)acetamide] | ** (25%<Y<=35%) | 100 to 500 nM | –
CCc1cc(N2C(=S)N(c3cnc(C#N)c(C(F)(F)F)c3)C(=O)C23CCC3)ccc1OCCN1CCN(CC(=O)Nc2cc(Cl)cc(NC3CCC(=O)NC3=O)c2)CC1 (stereo not drawn) [Example 85, N-(3-chloro-5-(2,6-dioxopiperidin-3-ylamino)phenyl)-2-(4-(2-(4-(7-(6-cyano-5-(trifluoromethyl)pyridin-3-yl)-8-oxo-6-thioxo-5,7-diazaspiro[3.4]octan-5-yl)-2-ethylphenoxy)ethyl)piperazin-1-yl)acetamide] | * (0<Y<=25%) | < 100 nM | –
